Measured values: ChEMBL document CHEMBL2150976, “Camptothecins in tumor homing via an RGD sequence mimetic” (Bioorg Med Chem Lett, 2012)
Blank lines part the entries; values can stand above or below the compound they belong to.

Assays:
PC-3 [1] = experiment: Cytotoxicity against human PC3 cells expressing […] integrin assessed as cell survival after 72 hrs by SRB assay; format: functional, cell-based; conditions: PC-3, 72 h
A2780 = experiment: Cytotoxicity against human A2780 cells overexpressing […] integrin assessed as cell survival after 72 hrs by SRB assay; format: functional, cell-based; conditions: A2780, 72 h
Integrin alpha-V/beta-3 [2] = target: T1, Integrin alpha-V/beta-3 (Homo sapiens, UniProt P05106+P06756); experiment: Displacement of [125I]echistatin from integrin […] after 3 hrs by gamma counter; format: protein-complex assay
T1 sequence (P05106 27-788 limits assumed): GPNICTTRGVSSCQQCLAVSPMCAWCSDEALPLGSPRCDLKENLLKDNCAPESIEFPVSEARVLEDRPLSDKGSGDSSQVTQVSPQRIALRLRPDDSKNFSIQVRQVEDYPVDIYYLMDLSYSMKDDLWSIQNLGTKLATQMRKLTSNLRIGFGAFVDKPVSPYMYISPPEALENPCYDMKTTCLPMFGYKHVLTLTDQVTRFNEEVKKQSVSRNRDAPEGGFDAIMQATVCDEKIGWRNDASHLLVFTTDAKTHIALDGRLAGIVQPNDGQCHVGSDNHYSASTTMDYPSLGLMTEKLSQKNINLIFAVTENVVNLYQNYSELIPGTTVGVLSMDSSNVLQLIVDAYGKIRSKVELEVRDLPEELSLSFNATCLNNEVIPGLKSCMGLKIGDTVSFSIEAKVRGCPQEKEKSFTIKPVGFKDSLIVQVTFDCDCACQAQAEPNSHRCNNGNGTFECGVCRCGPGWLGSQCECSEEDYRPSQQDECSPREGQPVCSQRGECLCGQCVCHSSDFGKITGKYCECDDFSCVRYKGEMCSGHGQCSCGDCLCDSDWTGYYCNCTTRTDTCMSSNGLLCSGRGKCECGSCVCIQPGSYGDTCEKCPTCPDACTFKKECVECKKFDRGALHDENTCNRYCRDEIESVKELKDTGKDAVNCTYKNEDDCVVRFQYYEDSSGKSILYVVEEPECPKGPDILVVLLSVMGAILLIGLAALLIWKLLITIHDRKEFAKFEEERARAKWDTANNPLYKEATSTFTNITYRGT
T1 sequence (P06756 31-889 limits assumed): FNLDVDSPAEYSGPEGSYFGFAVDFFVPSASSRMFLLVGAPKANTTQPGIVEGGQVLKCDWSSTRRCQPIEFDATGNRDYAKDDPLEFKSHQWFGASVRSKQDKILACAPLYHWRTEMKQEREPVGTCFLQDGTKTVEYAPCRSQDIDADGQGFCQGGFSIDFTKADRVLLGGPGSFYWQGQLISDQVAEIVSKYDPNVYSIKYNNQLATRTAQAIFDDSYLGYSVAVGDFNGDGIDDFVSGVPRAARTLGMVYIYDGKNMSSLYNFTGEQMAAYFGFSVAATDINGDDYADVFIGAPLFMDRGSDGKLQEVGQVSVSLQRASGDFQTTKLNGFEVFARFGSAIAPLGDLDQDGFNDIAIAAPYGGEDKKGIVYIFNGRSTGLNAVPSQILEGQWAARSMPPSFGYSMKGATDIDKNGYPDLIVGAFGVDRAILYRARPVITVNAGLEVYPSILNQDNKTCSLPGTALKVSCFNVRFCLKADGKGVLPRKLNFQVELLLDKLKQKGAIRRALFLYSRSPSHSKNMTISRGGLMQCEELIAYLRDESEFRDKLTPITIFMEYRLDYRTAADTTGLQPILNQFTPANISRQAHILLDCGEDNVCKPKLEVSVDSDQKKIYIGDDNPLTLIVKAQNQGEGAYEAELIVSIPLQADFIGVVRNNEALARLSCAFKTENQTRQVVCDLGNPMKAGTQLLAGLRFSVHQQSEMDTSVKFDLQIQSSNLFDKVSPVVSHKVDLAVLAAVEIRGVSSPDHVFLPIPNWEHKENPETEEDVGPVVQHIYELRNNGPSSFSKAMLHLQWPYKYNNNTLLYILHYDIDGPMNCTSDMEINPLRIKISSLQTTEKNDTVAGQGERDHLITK
T1 sequence (P06756 891-1048 limits assumed): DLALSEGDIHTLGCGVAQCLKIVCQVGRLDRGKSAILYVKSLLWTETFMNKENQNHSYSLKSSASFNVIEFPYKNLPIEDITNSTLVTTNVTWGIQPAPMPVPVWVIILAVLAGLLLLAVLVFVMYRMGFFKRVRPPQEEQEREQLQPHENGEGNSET

Integrin alpha-V/beta-5 = Integrin alpha-V/beta-5 (Homo sapiens, UniProt P06756+P18084); experiment: Displacement of [125I]echistatin from integrin […] after 3 hrs by gamma counter; format: protein-complex assay
Sequence of Integrin alpha-V/beta-5 (P06756 31-889 limits assumed): as the sequence (P06756 31-889 limits assumed) above
Sequence of Integrin alpha-V/beta-5 (P06756 891-1048 limits assumed): as the sequence (P06756 891-1048 limits assumed) above
Sequence of Integrin alpha-V/beta-5 (P18084 24-799 limits assumed): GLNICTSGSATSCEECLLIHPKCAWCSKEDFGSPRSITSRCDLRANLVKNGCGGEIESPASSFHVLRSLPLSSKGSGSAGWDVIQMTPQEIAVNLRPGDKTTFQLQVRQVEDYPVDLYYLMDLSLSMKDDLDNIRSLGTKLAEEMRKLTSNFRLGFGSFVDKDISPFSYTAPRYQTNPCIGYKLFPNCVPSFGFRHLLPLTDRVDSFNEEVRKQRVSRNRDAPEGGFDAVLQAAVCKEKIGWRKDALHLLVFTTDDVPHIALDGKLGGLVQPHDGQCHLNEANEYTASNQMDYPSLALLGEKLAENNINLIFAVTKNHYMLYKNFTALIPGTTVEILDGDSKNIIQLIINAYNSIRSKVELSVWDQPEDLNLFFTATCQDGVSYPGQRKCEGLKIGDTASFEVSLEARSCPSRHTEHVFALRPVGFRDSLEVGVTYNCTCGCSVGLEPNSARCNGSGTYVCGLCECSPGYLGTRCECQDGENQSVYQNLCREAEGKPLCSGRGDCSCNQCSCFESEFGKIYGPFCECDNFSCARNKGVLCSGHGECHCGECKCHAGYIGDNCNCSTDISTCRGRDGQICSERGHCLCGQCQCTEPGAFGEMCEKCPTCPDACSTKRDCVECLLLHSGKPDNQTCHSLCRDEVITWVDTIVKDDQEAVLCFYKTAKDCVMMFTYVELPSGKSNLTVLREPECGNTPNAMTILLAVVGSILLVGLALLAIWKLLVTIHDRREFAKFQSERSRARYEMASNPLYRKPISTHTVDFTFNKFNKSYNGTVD

Integrin alpha-V/beta-3 [3] = target: T1, Integrin alpha-V/beta-3; experiment: Inhibition of vitronectin binding to human alphaVbeta3 integrin over expressed in A2780 cells; format: cell-based
Integrin alpha-V/beta-3 [4] = target: T1, Integrin alpha-V/beta-3; experiment: Inhibition of vitronectin binding to human alphaVbeta3 integrin expressed in PC3 cells; format: cell-based, PC-3
[5] = Half life in rat plasma at 5 uM after 24 hrs by HPLC analysis; format: ADME, cell-free
Mus musculus [6] = experiment: Toxicity in CD1 nude mouse xenografted with human PC3 cells assessed as body weight loss at 60 mg/10 mL/kg, ip q4d x 4 schedule administered on day 3 of tumor implantation measured after 31 days post tumor implantation; format: organism-based, PC-3; conditions: in vivo, 744 h
Mus musculus [7] = experiment: Toxicity in CD1 nude mouse xenografted with human PC3 cells assessed as mortality at 60 mg/10 mL/kg, ip q4d x 4 schedule administered on day 3 of tumor implantation measured after 31 days post tumor implantation; format: organism-based, PC-3; conditions: in vivo, 744 h
PC-3 [8] = experiment: Antimetastatic activity against human PC3 cells xenografted in CD1 nude mouse assessed as area of metastases at 60 mg/10 mL/kg, ip q4d x 4 schedule administered on day 3 of tumor implantation measured after 31 days post tumor implantation; format: functional
PC-3 [9] = experiment: Antimetastatic activity against human PC3 cells xenografted in CD1 nude mouse assessed as increase in life span at 60 mg/10 mL/kg, ip q4d x 4 schedule administered on day 3 of tumor implantation measured after 31 days post tumor implantation; format: functional
PC-3 [10] = experiment: Antimetastatic activity against human PC3 cells xenografted in CD1 nude mouse assessed as median survival time at 60 mg/10 mL/kg, ip q4d x 4 schedule administered on day 3 of tumor implantation measured after 31 days post tumor implantation; format: functional
Mus musculus [11] = experiment: Toxicity in CD1 nude mouse xenografted with human A498 cells assessed as body weight loss at 55 mg/10 mL/kg, ip q4d x 8 schedule administered on day 3 of tumor implantation measured after 10 days; format: organism-based; conditions: in vivo, 240 h
Mus musculus [12] = experiment: Toxicity in CD1 nude mouse xenografted with human A498 cells assessed as mortality at 55 mg/10 mL/kg, ip q4d x 8 schedule administered on day 3 of tumor implantation measured after 10 days; format: organism-based; conditions: in vivo, 240 h
A498 = experiment: Antitumor activity against human A498 cells xenografted in CD1 nude mouse assessed as tumor volume inhibition at 55 mg/10 mL/kg, ip q4d x 8 schedule administered on day 3 of tumor implantation measured after 10 days; format: functional

SMILES: CC[C@@]1(O)C(=O)OCc2c1cc1n(c2=O)Cc2c-1nc1ccc(OC(=O)N3CCN(C(=O)c4ccc(COC(=O)N[C@@H](CCC(=O)N5CCN(c6cccc(NC7=NCCCN7)c6)CC5)C(=O)O)cc4)CC3)cc1c2/C=N/OC(C)(C)C
IC50 (PC-3 [1]): > 1000 nM | IC50 (A2780): 67 nM | IC50 (Integrin alpha-V/beta-3 [2]): 4.83 nM | IC50 (Integrin alpha-V/beta-5): 0.76 nM | IC50 (Integrin alpha-V/beta-3 [3]): 670 nM | IC50 (Integrin alpha-V/beta-3 [4]): 130 nM

SMILES: CCc1c2c(nc3ccc(O)cc13)-c1cc3c(c(=O)n1C2)COC(=O)[C@]3(O)CC [7-ETHYL-10-HYDROXYCAMPTOTHECIN]
IC50 (PC-3 [1]): 2.6 nM | IC50 (A2780): 9 nM

SMILES: CCc1c2c(nc3ccc(OC(=O)N4CCN(C(=O)c5ccc(COC(=O)N[C@@H](CCC(=O)N6CCN(c7cccc(NC8=NCCCN8)c7)CC6)C(=O)O)cc5)CC4)cc13)-c1cc3c(c(=O)n1C2)COC(=O)[C@]3(O)CC.Cl
IC50 (PC-3 [1]): 3400 nM | IC50 (A2780): 33 nM | IC50 (Integrin alpha-V/beta-3 [2]): 1.3 nM | IC50 (Integrin alpha-V/beta-5): 1 nM | IC50 (Integrin alpha-V/beta-3 [3]): 89 nM | IC50 (Integrin alpha-V/beta-3 [4]): 37 nM | half-life at 5 µM [5]: 13 h | Activity (Mus musculus [6]): 0% | Activity (Mus musculus [7]): Non-toxic | Activity (PC-3 [8]): 2.5 mm2 | Activity (PC-3 [9]): 34% | MST (PC-3 [10]): 63 days | Activity (Mus musculus [11]): 3% | Activity (Mus musculus [12]): Non-toxic | inhibition (INH) (A498): 39%

SMILES: CC[C@@]1(O)C(=O)OCc2c1cc1n(c2=O)Cc2c-1nc1ccc(O)cc1c2/C=N/OC(C)(C)C
IC50 (PC-3 [1]): 15 nM | IC50 (A2780): 0.4 nM

SMILES: CC[C@@]1(O)C(=O)OCc2c1cc1n(c2=O)Cc2cc3cc(O)ccc3nc2-1 [HYDROXYCAMPTOTHECIN]
IC50 (PC-3 [1]): 78 nM | IC50 (A2780): 4 nM

IC50 (Integrin alpha-V/beta-3 [2]): 800 nM
SMILES: N[C@@H](CCC(=O)N1CCN(c2cccc(NC3=NCCCN3)c2)CC1)C(=O)O

IC50 (Integrin alpha-V/beta-3 [2]): 2.3 nM
SMILES: COC(=O)c1ccc(COC(=O)N[C@@H](CCC(=O)N2CCN(c3cccc(NC4=NCCCN4)c3)CC2)C(=O)O)cc1

IC50 (Integrin alpha-V/beta-3 [2]): 3.26 nM
SMILES: O=C(N[C@@H](CCC(=O)N1CCN(c2cccc(NC3=NCCCN3)c2)CC1)C(=O)O)OCc1ccccc1

SMILES: CC[C@@]1(O)C(=O)OCc2c1cc1n(c2=O)Cc2cc3c(CN(C)C)c(O)ccc3nc2-1 [TOPOTECAN]
IC50 (PC-3 [1]): 185 nM | IC50 (A2780): 6 nM

IC50 (Integrin alpha-V/beta-3 [2]): 0.082 nM | IC50 (Integrin alpha-V/beta-5): 2.2 nM | IC50 (Integrin alpha-V/beta-3 [3]): 17 nM | IC50 (Integrin alpha-V/beta-3 [4]): 6.3 nM
SMILES: O=C(N[C@@H](CCC(=O)N1CCN(c2cccc(N=C3NCCCN3)c2)CC1)C(=O)O)OCc1ccc(C(=O)O)cc1

SMILES: CC[C@@]1(O)C(=O)OCc2c1cc1n(c2=O)Cc2cc3c(CN(C)C)c(OC(=O)N4CCN(C(=O)c5ccc(COC(=O)N[C@@H](CCC(=O)N6CCN(c7cccc(NC8=NCCCN8)c7)CC6)C(=O)O)cc5)CC4)ccc3nc2-1
IC50 (PC-3 [1]): > 1000 nM | IC50 (A2780): 570 nM | IC50 (Integrin alpha-V/beta-3 [2]): 4.97 nM | IC50 (Integrin alpha-V/beta-5): 0.73 nM | IC50 (Integrin alpha-V/beta-3 [3]): 1000 nM | IC50 (Integrin alpha-V/beta-3 [4]): 540 nM

IC50 (Integrin alpha-V/beta-3 [2]): 109 nM
SMILES: COC(=O)c1ccc(CNC(=O)N[C@@H](CCC(=O)N2CCN(c3cccc(N=C4NCCCN4)c3)CC2)C(=O)O)cc1

SMILES: CC[C@@]1(O)C(=O)OCc2c1cc1n(c2=O)Cc2cc3cc(OC(=O)N4CCN(C(=O)c5ccc(COC(=O)N[C@@H](CCC(=O)N6CCN(c7cccc(NC8=NCCCN8)c7)CC6)C(=O)O)cc5)CC4)ccc3nc2-1
IC50 (PC-3 [1]): > 1000 nM | IC50 (A2780): 110 nM | IC50 (Integrin alpha-V/beta-3 [2]): 2.28 nM | IC50 (Integrin alpha-V/beta-5): 2.05 nM | IC50 (Integrin alpha-V/beta-3 [3]): 730 nM | IC50 (Integrin alpha-V/beta-3 [4]): 350 nM
